Assay [1] deals with L. major promastigote. Briefly: L. major promastigote assay. Format: cell-based.
The test system of assay [2] is P. falciparum D6. The assay can be described thus: P. falciparum D6 assay. The conditions noted are these: strain D6. Format: cell-based.
Assay [3] has as its system HepG2 cells. The assay can be described thus: HepG2 cell toxicity (MTT) assay. Format: cell-based. The method, then:
Then 2 μL of DMSO (control) or different concentrations of drugs prepared from 200× DMSO stocks were added to the cultures. […] All experiments were repeated thrice in independent studies where each dose was administered in duplicate (total n=6). HepG2 Cell Toxicity Assay. The 384 well MTT cytotoxicity assay is a modification of the MTT method described by Ferrari et al. optimized for 384-well throughput, with modifications described below.
HepG2 Cell Toxicity assay. The 384 well MTT cytotoxicity assay is a modification of the MTT method described by Ferrari et al.^1 ENREF—26_ENREF—26_ENREF—26 optimized for 384 well throughput. […] 4.25 μL of diluted test compound was then added to the 38.3 μL of media in each well providing a 10 fold final dilution of compound. […] After a 48 hour incubation period, 8 μL of a 1.5 mg/ml solution of MTT diluted in complete MEM media was added to each well. All plates were subsequently incubated in the dark for 1 hour at room temperature. After incubation, the media and drugs in each well was removed by shaking plate over sink, the plates are then left to dry in hood for 15 minutes. […] Plates are put on a 3-D rotator for 15-30 minutes. Absorbance was determined in all wells using a Tecan iControl 1.6 Infinite plate reader.

Assay [4] deals with T. brucei brucei Lister 427. The assay can be described thus: Trypanosome replication assay. The class given is cell-based, Trypanosoma brucei brucei. The conditions noted are these: 48 h, 48 h, values ±7%. As for the experimental part:
Then 2 μL of DMSO (control) or different concentrations of drugs prepared from 200× DMSO stocks were added to the cultures. Cells were incubated at 37° C. for 48 h and counted with a hemocytometer. […] All experiments were repeated thrice in independent studies where each dose was administered in duplicate (total n=6). HepG2 Cell Toxicity Assay. The 384 well MTT cytotoxicity assay is a modification of the MTT method described by Ferrari et al. optimized for 384-well throughput, with modifications described below.

The subject of assay [5] is L. major amastigote. Briefly: L. major amastigote assay. The class given is cell-based.
Assay [6] relates to P. falciparum C235. Briefly: P. falciparum C235 assay. The class given is cell-based. Particulars: read-out: P. falciparum C235 (EC50).
Assay [7] deals with T. cruzi. Briefly: T. cruzi growth inhibition. The conditions noted are these: for inhibition at 10 µM: read-out: T. cruzi % inh at 10 μM. The class given is cell-based, Trypanosoma cruzi.
Assay [8] deals with P. falciparum W2. Briefly: P. falciparum W2 assay. The class given is cell-based.
Setting [9] is: Homo sapiens, HepG2, 48 h, MTT, 48 hour incubation, read-out: HepG2 IC50.
Setting [10] is: MTT, 48 hour incubation, read-out: HepG2 IC50.
Setting [11] is: Trypanosoma brucei, concentration giving 50% inhibition of growth of T brucei brucei Lister 427 cells, read-out: Tbb EC50.
[12] abbreviates: Plasmodium falciparum, strain C235.
The mark [13] stands for this setting: Plasmodium falciparum, strain W2, read-out: P. falciparum W2 (EC50).
Setting [14] is: Homo sapiens, HepG2, 48 h, read-out: HepG2 IC50, MTT, 48 hour incubation.
Setting [15] is: read-out: HepG2 IC50, MTT, 48 hour incubation.
The mark [16] stands for this setting: Trypanosoma brucei, read-out: Tbb EC50, concentration giving 50% inhibition of growth of T brucei brucei Lister 427 cells.
Setting [17] is: Plasmodium falciparum, W2, read-out: P. falciparum W2 (EC50).
[18] abbreviates: concentration giving 50% inhibition of growth of T brucei brucei Lister 427 cells, read-out: Tbb EC50.
[19] abbreviates: strain W2, read-out: P. falciparum W2 (EC50).

Like-named read-outs stand apart in the source and are kept apart here. Marks after values point to notes of the source that are not given here. Bounds are passed on as bounds.

A word on the IC50: it is the midpoint of a concentration-inhibition curve. For the molecule `O=S(=O)(c1ccc(-c2ccc3ncnc(Nc4ccc(OCc5cccc(F)c5)c(Cl)c4)c3c2)cc1)N1CCOCC1` [Compound 10a, N-(3-Chloro-4-((3-fluorobenzyl)oxy)phenyl)-6-(4-(morpholinosulfonyl)phenyl)quinazolin-4-amine], the EC50 in assay [1] (Leishmania major) was 1.3 µM; in assay [2] (Plasmodium falciparum), 220 nM; in assay [3] (Homo sapiens, HepG2, read-out: HepG2 cell growth EC50) it was more than 15 µM; in assay [4] (setting [11]), 1390 nM; in assay [4] (concentration giving 50% inhibition of growth of T brucei brucei Lister 427 cells, listed as NEU-369, read-out: Tbb EC50) it was 1300 nM; in assay [5] (Leishmania major) it was 1.6 µM. In addition, the EC50 in assay [6] (setting [12]) came out at 410 nM; in assay [8] (setting [13]), 690 nM. In addition, the IC50 is more than 15 µM in assay [3] (setting [9]) and more than 20 µM in assay [3] (setting [10]). Also, the inhibition at 10 µM in assay [7] (Trypanosoma cruzi) is -46%.
Turning to `O=S(=O)(c1cccc(-c2ccc3ncnc(Nc4ccc(OCc5cccc(F)c5)c(Cl)c4)c3c2)c1)N1CCOCC1` [Compound 10k, N-(3-Chloro-4-((3-fluorobenzyl)oxy)phenyl)-6-(3-(morpholinosulfonyl)phenyl)quinazolin-4-amine], the EC50 in assay [1] (Leishmania major) is more than 15 µM; in assay [2] (Plasmodium falciparum), 280 nM; in assay [4] (setting [16]), 330 nM; in assay [5] (Leishmania major) it was more than 15 µM; in assay [6] (setting [12]), 290 nM; in assay [7] (Trypanosoma cruzi), 1700 nM. The EC50 in assay [8] (setting [13]) is 400 nM. Moreover, the IC50 is more than 15 µM in assay [3] (setting [14]) and more than 20 µM in assay [3] (setting [15]).
Consider `O=S(=O)(c1ccc(-c2ccc3ncnc(Nc4ccc(OCc5cccc(F)c5)c(Cl)c4)c3c2)cc1)N1CCCCC1` [Compound 10l, N-(3-Chloro-4-((3-fluorobenzyl)oxy)phenyl)-6-(4-(piperidin-1-ylsulfonyl)phenyl)quinazolin-4-amine], for which the EC50 was more than 15 µM in assay [1] (Leishmania major); 180 nM in assay [2] (Plasmodium falciparum); 320 nM in assay [4] (setting [16]); more than 15 µM in assay [5] (Leishmania major); 240 nM in assay [6] (Plasmodium falciparum); 330 nM in assay [8] (setting [17]). In addition, the IC50 in assay [3] (setting [14]) is more than 15 µM; in assay [3] (setting [15]) it was more than 20 µM. Also, the inhibition at 10 µM in assay [7] (Trypanosoma cruzi) came to 1%.
`O=S(=O)(c1cccc(-c2ccc3ncnc(Nc4ccc(OCc5cccc(F)c5)c(Cl)c4)c3c2)c1)N1CCCCC1` [Compound 10m, N-(3-Chloro-4-((3-fluorobenzyl)oxy)phenyl)-6-(3-(piperidin-1-ylsulfonyl)phenyl)quinazolin-4-amine]: the EC50 in assay [1] (Leishmania major) is more than 15 µM; in assay [2] (Plasmodium falciparum) it was 330 nM; in assay [4] (setting [16]), 460 nM; in assay [5] (Leishmania major) it was more than 15 µM; in assay [6] (Plasmodium falciparum), 350 nM; in assay [7] (Trypanosoma cruzi), more than 50000 nM. The EC50 in assay [8] (setting [17]) was 590 nM. The figures for the IC50 in assay [3] (setting [14]) and in assay [3] (setting [15]) were more than 15 µM and more than 20 µM, respectively.
Turning to `O=S(=O)(c1ccc(-c2ccc3ncnc(Nc4ccc(OCc5cccc(F)c5)c(Cl)c4)c3c2)cc1)N1CCCC1` [Compound 10n], the EC50 was more than 15 µM in assay [1]; 200 nM in assay [2]; 350 nM in assay [4] (setting [18]); more than 15 µM in assay [5]; 420 nM in assay [6] (strain C235); 800 nM in assay [8] (setting [19]). Besides, the IC50 in assay [3] (setting [10]) is more than 15 µM. The “T. cruzi % inh at 10 μM” value in assay [7] is “(10)* %”.
For the molecule `O=S(=O)(c1cccc(-c2ccc3ncnc(Nc4ccc(OCc5cccc(F)c5)c(Cl)c4)c3c2)c1)N1CCCC1` [Compound 10o], the EC50 in assay [1] was more than 15 µM; in assay [2] it was 190 nM; in assay [4] (setting [18]) it was 250 nM; in assay [5], more than 15 µM; in assay [6] (strain C235), 300 nM; in assay [8] (setting [19]), 480 nM. For the same molecule, in assay [3] (setting [10]), the IC50 is more than 15 µM. For the same molecule, the “T. cruzi % inh at 10 μM” value in assay [7] is “(32)* %”.
In the case of `CN1CCN(S(=O)(=O)c2ccc(-c3ccc4ncnc(Nc5ccc(OCc6cccc(F)c6)c(Cl)c5)c4c3)cc2)CC1` [Compound 10p, N-(3-Chloro-4-((3-fluorobenzyl)oxy)phenyl)-6-(4-((4-methylpiperazin-1-yl)sulfonyl)phenyl)quinazolin-4-amine], the EC50 in assay [1] (Leishmania major) worked out at 2.8 µM; in assay [2] (Plasmodium falciparum) it was 27 nM; in assay [4] (setting [11]), 530 nM; in assay [5] (Leishmania major) it was 1.6 µM; in assay [6] (setting [12]), 39 nM; in assay [8] (setting [13]), 44 nM. Further, the IC50 in assay [3] (setting [9]) was more than 15 µM. In addition, in assay [7] (Trypanosoma cruzi), the inhibition at 10 µM amounted to 60%.
For `CN1CCCN(S(=O)(=O)c2ccc(-c3ccc4ncnc(Nc5ccc(OCc6cccc(F)c6)c(Cl)c5)c4c3)cc2)CC1` [Compound 10q, N-(3-Chloro-4-((3-fluorobenzyl)oxy)phenyl)-6-(4((4-methyl-1,4-diazepan-1-yl)sulfonyl)phenyl)quinazolin-4-amine], the EC50 was found to be 3.6 µM in assay [1] (Leishmania major); 46 nM in assay [2] (Plasmodium falciparum); 810 nM in assay [4] (setting [11]); 2 µM in assay [5] (Leishmania major); 50 nM in assay [6] (setting [12]); 510 nM in assay [7] (Trypanosoma cruzi). The EC50 in assay [8] (setting [13]) was determined as 52 nM. For the same molecule, the IC50 in assay [3] (setting [9]) came to 1.81 µM.
In the case of `O=S(=O)(c1ccc(-c2ccc3ncnc(Nc4ccc(OCc5cccc(F)c5)c(Cl)c4)c3c2)cc1)N1CCSCC1` [Compound 10r, N-(3-Chloro-4-((3-fluorobenzyl)oxy)phenyl)-6-(4-(thiomorpholinosulfonyl)phenyl)quinazolin-4-amine], the EC50 in assay [1] (Leishmania major) was more than 15 µM; in assay [2] (Plasmodium falciparum), 460 nM; in assay [4] (setting [11]), 470 nM; in assay [5] (Leishmania major), more than 15 µM; in assay [6] (Plasmodium falciparum), 760 nM; in assay [8] (setting [13]), 1600 nM. Moreover, the IC50 in assay [3] (setting [9]) was more than 15 µM. In addition, the inhibition at 10 µM in assay [7] (Trypanosoma cruzi) is 18%.
On to `O=S(=O)(c1ccc(-c2ccc3ncnc(Nc4ccc(OCc5cccc(F)c5)c(Cl)c4)c3c2)cc1)N1CCNCC1` [Compound 10s], for which the EC50 is more than 15 µM in assay [1]; 94 nM in assay [2]; 280 nM in assay [4] (setting [18]); 0.8 µM in assay [5]; 120 nM in assay [6] (strain C235); 790 nM in assay [7]. For the same molecule, the EC50 in assay [8] (setting [19]) is 200 nM. Besides, the IC50 in assay [3] (setting [10]) amounted to 3.32 µM.
For `CS(=O)(=O)c1ccc(-c2ccc3ncnc(Nc4ccc(OCc5cccc(F)c5)c(Cl)c4)c3c2)cc1` [Compound 10t, N-(3-Chloro-4-((3-fluorobenzyl)oxy)phenyl)-6-(4-(methylsulfonyl)phenyl)quinazolin-4-amine], the EC50 was found to be 1.6 µM in assay [1] (Leishmania major); 120 nM in assay [2] (Plasmodium falciparum); 900 nM in assay [4] (setting [11]); 3.9 µM in assay [5] (Leishmania major); 200 nM in assay [6] (setting [12]); 650 nM in assay [7] (Trypanosoma cruzi). In addition, the EC50 in assay [8] (setting [13]) worked out at 360 nM. For the same molecule, the IC50 in assay [3] (setting [9]) is more than 15 µM.
With `Cl.O=S(=O)(c1ccc(-c2ccc3ncnc(Nc4ccc(OCc5ccccc5F)c(Cl)c4)c3c2)cc1)N1CCOCC1` [Compound 20i, N-(3-Chloro-4-((2-fluorobenzypoxy)phenyl)-6-(4-(morpholinosulfonyl)phenyl)quinazolin-4-amine Hydrochloride], the EC50 in assay [1] is 0.71 µM; in assay [2] it was 130 nM; in assay [4] (concentration giving 50% inhibition of growth of T brucei brucei Lister 427 cells, Hydrochloride, read-out: Tbb EC50), 1650 nM; in assay [4] (concentration giving 50% inhibition of growth of T brucei brucei Lister 427 cells, listed as NEU-565, Hydrochloride, read-out: Tbb EC50) it was 1700 nM; in assay [5] it was more than 15 µM; in assay [6] (strain C235), 220 nM. Further, the EC50 in assay [8] (setting [19]) came out at 570 nM. Also, the IC50 in assay [3] (setting [10]) is more than 15 µM.
